Experimental data taken from PMC4770715, “LIM kinase inhibitors disrupt mitotic microtubule organization and impair tumor cell proliferation” (Oncotarget, 2015).

Key:
Assay in all cases: biochemical
Design in all cases: KINOMEscan active-site competition binding, percent of control (100 = no competition)
Settings in all cases: competition binding, percent control
[1] = target: T1, ABL1(F317I)-nonphosphorylated (Homo sapiens, UniProt P00519, F317I)
T1 construct: nonphosphorylated

[2] = target: T2, ABL1(Q252H)-nonphosphorylated (Homo sapiens, UniProt P00519, Q252H)
T2 construct: nonphosphorylated

[3] = target: T3, ABL1-nonphosphorylated (Homo sapiens, UniProt P00519)
T3 construct: nonphosphorylated

[4] = target: AKT3 (Homo sapiens, UniProt Q9Y243)
[5] = target: BRSK1 (Homo sapiens, UniProt Q8TDC3)
[6] = target: CAMK1G (Homo sapiens, UniProt Q96NX5)
[7] = target: HIPK4 (Homo sapiens, UniProt Q8NE63)
[8] = target: T4, JNK1 (Homo sapiens, UniProt P45983)
T4 construct: gene MAPK8

[9] = target: MAP4K2 (Homo sapiens, UniProt Q12851)
[10] = target: MAST1 (Homo sapiens, UniProt Q9Y2H9)
[11] = target: T5, MEK6 (Homo sapiens, UniProt P52564)
T5 construct: gene MAP2K6

[12] = target: MKNK1 (Homo sapiens, UniProt Q9BUB5)
[13] = target: T6, MRCKA (Homo sapiens, UniProt Q5VT25)
T6 construct: gene CDC42BPA

[14] = target: MUSK (Homo sapiens, UniProt O15146)
[15] = target: NEK1 (Homo sapiens, UniProt Q96PY6)
[16] = target: PDGFRA (Homo sapiens, UniProt P16234)
[17] = target: T7, PFTK1 (Homo sapiens, UniProt O94921)
T7 construct: gene CDK14

[18] = target: PIK3CA(E545A) (Homo sapiens, UniProt P42336, E545A)
[19] = target: PIK3CA(H1047L) (Homo sapiens, UniProt P42336, H1047L)
[20] = target: RET(V804M) (Homo sapiens, UniProt P07949, V804M)
[21] = target: RIPK2 (Homo sapiens, UniProt O43353)
[22] = target: T8, RSK4(Kin.Dom.1-N-terminal) (Homo sapiens, UniProt Q9UK32)
T8 construct: gene RPS6KA6; Kin.Dom.1-N-terminal
T8 sequence (Q9UK32 whole entry): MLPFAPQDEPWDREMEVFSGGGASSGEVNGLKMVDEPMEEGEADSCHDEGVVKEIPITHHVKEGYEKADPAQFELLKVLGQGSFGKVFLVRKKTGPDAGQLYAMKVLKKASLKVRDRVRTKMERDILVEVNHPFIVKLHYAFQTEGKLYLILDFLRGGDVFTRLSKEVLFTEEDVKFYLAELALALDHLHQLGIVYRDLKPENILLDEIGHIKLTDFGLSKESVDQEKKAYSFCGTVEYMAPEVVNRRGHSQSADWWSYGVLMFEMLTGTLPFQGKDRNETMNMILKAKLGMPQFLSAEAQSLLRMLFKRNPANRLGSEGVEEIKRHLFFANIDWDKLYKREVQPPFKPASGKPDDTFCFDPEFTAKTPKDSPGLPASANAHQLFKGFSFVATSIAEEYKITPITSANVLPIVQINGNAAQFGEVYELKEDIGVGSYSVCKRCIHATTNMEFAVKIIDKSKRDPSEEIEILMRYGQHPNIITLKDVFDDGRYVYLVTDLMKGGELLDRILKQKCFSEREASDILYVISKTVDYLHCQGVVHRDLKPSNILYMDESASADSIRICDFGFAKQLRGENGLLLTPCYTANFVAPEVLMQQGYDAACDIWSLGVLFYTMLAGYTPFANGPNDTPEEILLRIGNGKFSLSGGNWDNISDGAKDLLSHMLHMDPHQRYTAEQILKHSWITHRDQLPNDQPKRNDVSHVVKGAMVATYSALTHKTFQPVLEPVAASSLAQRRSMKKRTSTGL

NEK1, sequence (Q96PY6 whole entry): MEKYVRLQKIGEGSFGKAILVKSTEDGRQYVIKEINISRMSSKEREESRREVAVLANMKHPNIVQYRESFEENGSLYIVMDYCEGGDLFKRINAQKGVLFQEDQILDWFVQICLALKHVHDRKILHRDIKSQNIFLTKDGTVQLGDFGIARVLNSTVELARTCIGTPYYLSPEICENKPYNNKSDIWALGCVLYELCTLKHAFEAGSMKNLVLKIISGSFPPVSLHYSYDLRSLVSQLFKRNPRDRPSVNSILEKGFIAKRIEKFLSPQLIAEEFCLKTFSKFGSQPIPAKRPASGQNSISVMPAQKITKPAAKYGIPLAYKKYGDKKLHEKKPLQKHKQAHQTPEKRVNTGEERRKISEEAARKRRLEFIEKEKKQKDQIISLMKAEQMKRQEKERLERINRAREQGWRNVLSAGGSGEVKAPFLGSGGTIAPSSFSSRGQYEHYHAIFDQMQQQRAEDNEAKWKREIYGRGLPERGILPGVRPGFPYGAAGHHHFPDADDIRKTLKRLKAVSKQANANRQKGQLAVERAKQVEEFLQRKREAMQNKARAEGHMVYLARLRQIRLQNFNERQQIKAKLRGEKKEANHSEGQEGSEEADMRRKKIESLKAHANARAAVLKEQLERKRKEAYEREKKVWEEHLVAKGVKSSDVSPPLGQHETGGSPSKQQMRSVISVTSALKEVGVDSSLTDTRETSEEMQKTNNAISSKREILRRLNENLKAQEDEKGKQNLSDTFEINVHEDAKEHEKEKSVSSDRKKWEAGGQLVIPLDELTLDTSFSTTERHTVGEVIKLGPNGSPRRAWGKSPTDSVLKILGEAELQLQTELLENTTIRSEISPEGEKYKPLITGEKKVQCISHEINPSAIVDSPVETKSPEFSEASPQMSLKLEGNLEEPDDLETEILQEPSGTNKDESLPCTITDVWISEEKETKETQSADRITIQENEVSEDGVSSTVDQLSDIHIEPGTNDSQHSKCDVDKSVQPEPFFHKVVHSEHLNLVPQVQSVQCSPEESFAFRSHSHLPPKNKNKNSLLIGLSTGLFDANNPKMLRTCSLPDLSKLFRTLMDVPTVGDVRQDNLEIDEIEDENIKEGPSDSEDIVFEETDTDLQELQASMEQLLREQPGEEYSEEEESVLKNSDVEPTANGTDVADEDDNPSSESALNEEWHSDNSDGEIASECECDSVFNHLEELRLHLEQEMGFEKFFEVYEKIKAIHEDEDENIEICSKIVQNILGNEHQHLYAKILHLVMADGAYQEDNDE
HIPK4, sequence (Q8NE63 whole entry): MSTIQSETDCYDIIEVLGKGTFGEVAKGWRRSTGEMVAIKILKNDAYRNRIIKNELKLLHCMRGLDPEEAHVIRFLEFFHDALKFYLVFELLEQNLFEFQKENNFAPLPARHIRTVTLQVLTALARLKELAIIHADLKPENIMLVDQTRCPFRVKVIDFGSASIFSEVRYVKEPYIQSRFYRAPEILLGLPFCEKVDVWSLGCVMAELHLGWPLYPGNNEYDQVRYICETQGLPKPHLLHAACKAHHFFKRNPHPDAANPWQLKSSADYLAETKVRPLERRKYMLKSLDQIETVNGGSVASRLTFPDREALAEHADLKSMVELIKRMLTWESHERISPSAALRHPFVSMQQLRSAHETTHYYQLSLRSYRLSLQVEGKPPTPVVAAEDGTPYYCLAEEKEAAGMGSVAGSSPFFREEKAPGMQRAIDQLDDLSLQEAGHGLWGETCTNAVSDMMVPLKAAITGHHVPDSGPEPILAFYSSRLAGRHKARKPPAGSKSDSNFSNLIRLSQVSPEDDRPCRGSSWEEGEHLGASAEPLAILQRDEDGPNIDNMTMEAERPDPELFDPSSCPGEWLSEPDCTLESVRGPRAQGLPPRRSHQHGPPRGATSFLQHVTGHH
MKNK1, sequence (Q9BUB5 whole entry): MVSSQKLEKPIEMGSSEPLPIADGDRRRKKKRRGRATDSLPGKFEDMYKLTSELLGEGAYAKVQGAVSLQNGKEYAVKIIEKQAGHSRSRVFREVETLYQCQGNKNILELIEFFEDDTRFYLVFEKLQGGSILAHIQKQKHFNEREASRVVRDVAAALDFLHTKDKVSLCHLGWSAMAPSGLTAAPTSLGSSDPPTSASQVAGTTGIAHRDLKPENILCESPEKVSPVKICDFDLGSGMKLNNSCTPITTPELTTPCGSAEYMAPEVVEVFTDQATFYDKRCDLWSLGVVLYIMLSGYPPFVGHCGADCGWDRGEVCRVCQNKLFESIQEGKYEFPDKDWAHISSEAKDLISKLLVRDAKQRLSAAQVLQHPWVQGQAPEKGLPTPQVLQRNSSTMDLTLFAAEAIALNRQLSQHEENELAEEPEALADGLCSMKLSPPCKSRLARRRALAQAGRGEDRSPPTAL
T5 sequence (P52564 whole entry): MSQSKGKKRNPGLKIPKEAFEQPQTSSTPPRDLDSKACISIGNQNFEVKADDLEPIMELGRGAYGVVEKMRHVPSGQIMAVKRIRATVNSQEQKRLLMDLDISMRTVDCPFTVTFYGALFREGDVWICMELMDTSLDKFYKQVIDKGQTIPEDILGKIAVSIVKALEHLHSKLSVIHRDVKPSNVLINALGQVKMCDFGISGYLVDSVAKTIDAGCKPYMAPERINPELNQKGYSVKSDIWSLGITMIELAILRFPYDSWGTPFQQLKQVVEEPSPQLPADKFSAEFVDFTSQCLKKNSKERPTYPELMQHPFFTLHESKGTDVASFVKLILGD
T4 sequence (P45983 whole entry): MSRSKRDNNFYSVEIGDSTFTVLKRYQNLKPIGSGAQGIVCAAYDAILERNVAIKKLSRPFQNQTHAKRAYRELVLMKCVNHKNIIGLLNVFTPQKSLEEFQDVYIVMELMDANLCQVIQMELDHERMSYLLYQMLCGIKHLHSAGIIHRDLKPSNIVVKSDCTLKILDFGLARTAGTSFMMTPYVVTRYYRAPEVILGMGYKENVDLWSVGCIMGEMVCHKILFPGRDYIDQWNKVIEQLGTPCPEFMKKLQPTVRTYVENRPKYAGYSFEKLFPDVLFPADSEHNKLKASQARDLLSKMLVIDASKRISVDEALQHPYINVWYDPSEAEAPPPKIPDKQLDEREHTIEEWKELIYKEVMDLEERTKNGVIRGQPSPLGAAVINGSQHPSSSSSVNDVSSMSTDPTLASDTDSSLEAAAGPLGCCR
AKT3, sequence (Q9Y243 whole entry): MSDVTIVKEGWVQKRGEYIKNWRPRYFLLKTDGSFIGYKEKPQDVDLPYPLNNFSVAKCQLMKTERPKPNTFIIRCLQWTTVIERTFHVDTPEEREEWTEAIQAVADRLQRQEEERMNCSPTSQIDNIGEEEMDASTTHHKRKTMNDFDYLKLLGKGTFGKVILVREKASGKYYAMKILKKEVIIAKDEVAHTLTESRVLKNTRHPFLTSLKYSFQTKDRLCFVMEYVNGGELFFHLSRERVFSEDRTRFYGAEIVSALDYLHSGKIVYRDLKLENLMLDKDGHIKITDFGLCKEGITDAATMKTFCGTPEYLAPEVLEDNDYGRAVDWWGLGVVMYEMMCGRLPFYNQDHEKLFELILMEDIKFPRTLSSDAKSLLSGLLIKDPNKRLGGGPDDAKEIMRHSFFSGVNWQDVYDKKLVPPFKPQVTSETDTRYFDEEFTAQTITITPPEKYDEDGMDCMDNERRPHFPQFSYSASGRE
RIPK2, sequence (O43353 whole entry): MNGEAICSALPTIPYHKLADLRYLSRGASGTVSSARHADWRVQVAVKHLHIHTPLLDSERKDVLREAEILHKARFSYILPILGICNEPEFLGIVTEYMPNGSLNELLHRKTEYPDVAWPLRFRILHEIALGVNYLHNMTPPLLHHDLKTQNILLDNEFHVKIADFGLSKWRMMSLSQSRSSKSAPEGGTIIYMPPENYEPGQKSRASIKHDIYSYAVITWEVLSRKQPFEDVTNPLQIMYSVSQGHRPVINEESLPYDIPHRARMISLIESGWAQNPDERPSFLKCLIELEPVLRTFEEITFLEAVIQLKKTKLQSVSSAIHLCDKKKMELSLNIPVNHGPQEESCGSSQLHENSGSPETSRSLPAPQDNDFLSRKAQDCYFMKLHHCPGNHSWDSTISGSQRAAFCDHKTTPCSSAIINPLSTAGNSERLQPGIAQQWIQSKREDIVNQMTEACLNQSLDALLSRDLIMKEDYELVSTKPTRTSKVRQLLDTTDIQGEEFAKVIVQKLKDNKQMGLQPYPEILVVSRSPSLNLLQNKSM

Row | Compound | remaining binding at 10 µM [1] [%] | remaining binding at 10 µM [2] [%] | remaining binding at 10 µM [3] [%] | remaining binding at 10 µM [4] [%] | remaining binding at 10 µM [5] [%] | remaining binding at 10 µM [6] [%] | remaining binding at 10 µM [7] [%] | remaining binding at 10 µM [8] [%] | remaining binding at 10 µM [9] [%] | remaining binding at 10 µM [10] [%] | remaining binding at 10 µM [11] [%] | remaining binding at 10 µM [12] [%] | remaining binding at 10 µM [13] [%] | remaining binding at 10 µM [14] [%] | remaining binding at 10 µM [15] [%] | remaining binding at 10 µM [16] [%] | remaining binding at 10 µM [17] [%] | remaining binding at 10 µM [18] [%] | remaining binding at 10 µM [19] [%] | remaining binding at 10 µM [20] [%] | further results
1 | COc1ccc(-c2cnccc2-c2cnc(NC(=O)C(C)C)s2)c(C(F)(F)F)c1 [CRT0105446, N-{5-[3-(4-Methoxy-2-trifluoromethyl-phenyl)-pyridin-4-yl]-hiazol-2-yl}-isobutyramide] | 100 | 83 | 82 | 100 | 27 | 99 | 75 | 34 | 100 | 68 | 100 | 49 | 77 | 96 | 100 | 66 | 51 | 100 | 100 | 68 | remaining binding at 10 µM [21]: 80%; remaining binding at 10 µM [22]: 59%
2 | Cc1ccc(-c2cnccc2-c2cnc(Nc3ccc(O)cc3)s2)c(Cl)c1 [CRT0105950, 4-{5-[3-(2-Chloro-4-methyl-phenyl)-pyridin-4-yl]-thiazol-2-ylamino}-phenol] | 93 | 70 | 43 | 100 | 30 | 57 | 16 | 40 | 81 | 84 | 20 | 46 | 84 | 18 | 81 | 48 | 47 | 100 | 97 | 3.4 | remaining binding at 10 µM [21]: 18%; remaining binding at 10 µM [22]: 0.4%
